Test results published in ChEMBL document CHEMBL1201862, “PubChem BioAssay data set” (2004).
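Cells were grown in 96-well plates and exposed to each compound for 48 hours at five concentrations; endpoints were interpolated linearly between bracketing concentrations, or set to the highest concentration if not reached. GI50 = concentration required for 50% inhibition of growth.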 The source made the active and inactive calls. Cut-off read from the data, not from the text of the source: active = GI50 up to about 1.1 µM and inactive = higher.

What was measured:
Test in all cases: NCI tumour cell line growth inhibition, 48 h
A498 = system: A498
A549 = system: A549
ACHN = system: ACHN
CCRF-CEM = system: CCRF-CEM
DMS-273 = system: DMS-273
EKVX = system: EKVX
HL-60 = system: HL-60
HOP-62 = system: HOP-62
HOP-92 = system: HOP-92
HT-29 = system: HT-29
IGROV-1 = system: IGROV-1
KM12 = system: KM12
M14 = system: M14
M19-MEL = system: M19-MEL
MOLT-4 = system: MOLT-4
NCI-H23 = system: NCI-H23
NCI-H460 = system: NCI-H460
NCI-H522 = system: NCI-H522
OVCAR-5 = system: OVCAR-5
OVCAR-8 = system: OVCAR-8
RXF 393 = system: RXF 393
SF-268 = system: SF-268
SF-295 = system: SF-295
SK-MEL-28 = system: SK-MEL-28
SK-OV-3 = system: SK-OV-3
SNB-19 = system: SNB-19
SNB-78 = system: SNB-78
SR = system: SR
TK-10 = system: TK-10
U-251 = system: U-251
UACC-257 = system: UACC-257
UO-31 = system: UO-31
786-0 = system: 786-0
CAKI-1 = system: CAKI-1
COLO 205 = system: COLO 205
DLD-1 = system: DLD-1
DMS-114 = system: DMS-114
HCC 2998 = system: HCC 2998
HCT-116 = system: HCT-116
HCT-15 = system: HCT-15
HOP-18 = system: HOP-18
K562 = system: K562
KM-20L2 = system: KM-20L2
LOX IMVI = system: LOX IMVI
LXFL 529 = system: LXFL 529
Malme-3M = system: Malme-3M
NCI-H226 = system: NCI-H226
OVCAR-3 = system: OVCAR-3
OVCAR-4 = system: OVCAR-4
RPMI-8226 = system: RPMI-8226
SF-539 = system: SF-539
SK-MEL-2 = system: SK-MEL-2
SK-MEL-5 = system: SK-MEL-5
SN12C = system: SN12C
SNB-75 = system: SNB-75
SW-620 = system: SW-620
UACC-62 = system: UACC-62

Structure (SMILES): COC1=C(OC)C(O)(c2ccccc2)C1=O (stereo unspecified)
- GI50 (A498): > 100 µM (inactive)
- GI50 (A549): > 100 µM (inactive)
- GI50 (ACHN): > 100 µM (inactive)
- GI50 (CCRF-CEM): > 100 µM (inactive)
- GI50 (DMS-273): > 100 µM (inactive)
- GI50 (EKVX): > 100 µM (inactive)
- GI50 (HL-60): > 100 µM (inactive)
- GI50 (HOP-62): > 100 µM (inactive)
- GI50 (HOP-92): > 100 µM (inactive)
- GI50 (HT-29): > 100 µM (inactive)
- GI50 (IGROV-1): > 100 µM (inactive)
- GI50 (KM12): > 100 µM (inactive)
- GI50 (M14): > 100 µM (inactive)
- GI50 (M19-MEL): > 100 µM (inactive)
- GI50 (MOLT-4): > 100 µM (inactive)
- GI50 (NCI-H23): > 100 µM (inactive)
- GI50 (NCI-H460): > 100 µM (inactive)
- GI50 (NCI-H522): > 100 µM (inactive)
- GI50 (OVCAR-5): > 100 µM (inactive)
- GI50 (OVCAR-8): > 100 µM (inactive)
- GI50 (RXF 393): > 100 µM (inactive)
- GI50 (SF-268): > 100 µM (inactive)
- GI50 (SF-295): > 100 µM (inactive)
- GI50 (SK-MEL-28): > 100 µM (inactive)
- GI50 (SK-OV-3): > 100 µM (inactive)
- GI50 (SNB-19): > 100 µM (inactive)
- GI50 (SNB-78): > 100 µM (inactive)
- GI50 (SR): > 100 µM (inactive)
- GI50 (TK-10): 22.2 µM (inactive)
- GI50 (U-251): > 100 µM (inactive)
- GI50 (UACC-257): > 100 µM (inactive)
- GI50 (UO-31): > 100 µM (inactive)

Structure (SMILES): CC(C)=CC(=O)C/C(=N\NC(N)=S)C(=O)Nc1ccc(Cl)cc1
- GI50 (786-0): > 100 µM (inactive)
- GI50 (A498): > 100 µM (inactive)
- GI50 (A549): > 100 µM (inactive)
- GI50 (ACHN): > 100 µM (inactive)
- GI50 (CAKI-1): > 100 µM (inactive)
- GI50 (CCRF-CEM): > 100 µM (inactive)
- GI50 (COLO 205): > 100 µM (inactive)
- GI50 (DLD-1): > 100 µM (inactive)
- GI50 (DMS-114): > 100 µM (inactive)
- GI50 (DMS-273): > 100 µM (inactive)
- GI50 (EKVX): > 100 µM (inactive)
- GI50 (HCC 2998): > 100 µM (inactive)
- GI50 (HCT-116): > 100 µM (inactive)
- GI50 (HCT-15): > 100 µM
- GI50 (HL-60): > 100 µM (inactive)
- GI50 (HOP-18): > 100 µM (inactive)
- GI50 (HT-29): > 100 µM (inactive)
- GI50 (IGROV-1): > 100 µM (inactive)
- GI50 (K562): > 100 µM (inactive)
- GI50 (KM-20L2): > 100 µM (inactive)
- GI50 (KM12): > 100 µM (inactive)
- GI50 (LOX IMVI): > 100 µM (inactive)
- GI50 (LXFL 529): > 100 µM (inactive)
- GI50 (M14): > 100 µM (inactive)
- GI50 (M19-MEL): > 100 µM (inactive)
- GI50 (MOLT-4): > 100 µM (inactive)
- GI50 (Malme-3M): > 100 µM (inactive)
- GI50 (NCI-H226): > 100 µM (inactive)
- GI50 (NCI-H23): > 100 µM (inactive)
- GI50 (NCI-H460): > 100 µM (inactive)
- GI50 (OVCAR-3): > 100 µM (inactive)
- GI50 (OVCAR-4): > 100 µM (inactive)
- GI50 (OVCAR-5): > 100 µM (inactive)
- GI50 (OVCAR-8): > 100 µM (inactive)
- GI50 (RPMI-8226): > 100 µM (inactive)
- GI50 (RXF 393): > 100 µM (inactive)
- GI50 (SF-268): > 100 µM (inactive)
- GI50 (SF-295): > 100 µM (inactive)
- GI50 (SF-539): > 100 µM (inactive)
- GI50 (SK-MEL-28): > 100 µM (inactive)
- GI50 (SK-MEL-2): > 100 µM (inactive)
- GI50 (SK-MEL-5): > 100 µM (inactive)
- GI50 (SK-OV-3): > 100 µM (inactive)
- GI50 (SN12C): > 100 µM (inactive)
- GI50 (SNB-19): > 100 µM (inactive)
- GI50 (SNB-75): 79.8 µM (inactive)
- GI50 (SNB-78): > 100 µM (inactive)
- GI50 (SW-620): > 100 µM (inactive)
- GI50 (TK-10): > 100 µM (inactive)
- GI50 (U-251): > 100 µM (inactive)
- GI50 (UACC-257): > 100 µM (inactive)
- GI50 (UACC-62): > 100 µM (inactive)
- GI50 (UO-31): > 100 µM (inactive)

Structure (SMILES): O=P(Nc1cccc(Cl)c1)(Oc1ccccc1)N(CCCl)CCCl (stereo unspecified)
- GI50 (A498): 14.4 µM (inactive)
- GI50 (A549): 13.2 µM (inactive)
- GI50 (ACHN): 16.7 µM (inactive)
- GI50 (CAKI-1): 13.9 µM (inactive)
- GI50 (CCRF-CEM): > 100 µM (inactive)
- GI50 (COLO 205): 15.9 µM (inactive)
- GI50 (DLD-1): 14.4 µM (inactive)
- GI50 (DMS-114): 12.7 µM (inactive)
- GI50 (DMS-273): 13.6 µM (inactive)
- GI50 (EKVX): 17.7 µM (inactive)
- GI50 (HCC 2998): 14.8 µM (inactive)
- GI50 (HCT-116): 13.1 µM (inactive)
- GI50 (HCT-15): 13.5 µM
- GI50 (HL-60): 70.6 µM (inactive)
- GI50 (HOP-18): 24.9 µM (inactive)
- GI50 (HOP-62): 16.6 µM (inactive)
- GI50 (HOP-92): 11.9 µM (inactive)
- GI50 (HT-29): 14.8 µM (inactive)
- GI50 (IGROV-1): 15.8 µM (inactive)
- GI50 (K562): 99.3 µM (inactive)
- GI50 (KM-20L2): 13.3 µM (inactive)
- GI50 (KM12): 14.8 µM (inactive)
- GI50 (LXFL 529): 11.7 µM (inactive)
- GI50 (M14): 15.2 µM (inactive)
- GI50 (M19-MEL): 18 µM (inactive)
- GI50 (MOLT-4): 17.4 µM (inactive)
- GI50 (Malme-3M): 14.9 µM (inactive)
- GI50 (NCI-H226): 15 µM (inactive)
- GI50 (NCI-H23): 16.5 µM (inactive)
- GI50 (NCI-H522): 99.5 µM (inactive)
- GI50 (OVCAR-3): 14.2 µM (inactive)
- GI50 (OVCAR-4): 11.7 µM (inactive)
- GI50 (OVCAR-5): 14.5 µM (inactive)
- GI50 (OVCAR-8): 17 µM (inactive)
- GI50 (SF-268): 15.1 µM (inactive)
- GI50 (SF-295): 14.5 µM (inactive)
- GI50 (SF-539): 16.7 µM (inactive)
- GI50 (SK-MEL-28): 16.6 µM (inactive)
- GI50 (SK-MEL-2): 12.6 µM (inactive)
- GI50 (SK-MEL-5): 12.4 µM (inactive)
- GI50 (SK-OV-3): > 100 µM (inactive)
- GI50 (SN12C): 14.9 µM (inactive)
- GI50 (SNB-75): 15.6 µM (inactive)
- GI50 (SNB-78): 18.3 µM (inactive)
- GI50 (SR): 31.6 µM (inactive)
- GI50 (SW-620): 16.7 µM (inactive)
- GI50 (TK-10): 13.7 µM (inactive)
- GI50 (U-251): 14.6 µM (inactive)
- GI50 (UACC-257): 14.1 µM (inactive)
- GI50 (UACC-62): 11.6 µM (inactive)
- GI50 (UO-31): 85.9 µM (inactive)
